Test results published in patent publication US20240352429A1, “AGENT FOR INDUCING VIRAL VECTOR PRODUCTION” (priority 2021, published 2024).

How the values were obtained:
[1] = system: suspension HEK293 cells (FreeStyle 293F cell); type: cell-based; conditions: for titer of adeno-associated virus vector in the cell-derived sample, various cell growth inhibitors A: nocodazole 500 nM, benzimidazoles 50 μM, 5 μM, 500 nM, vinblastine sulfate, colcemid, taxanes 5 μM, 100 nM, FIG. 3 to 7
virus-like particles = conditions: known from Non Patent Literature 1; cited from earlier work
suspension HEK293 cells [2] = assay: Titer of adeno-associated virus vector (AAV2) by quantitative PCR after introducing linear covalently closed DNA (LCC DNA) with PEI; type: cell-based; conditions: for titer of adeno-associated virus vector from the cell-derived sample, LCC DNA: DMSO as solubilizer, nocodazole 500 nM added 1 minute after introduction, oxibendazole 50 μM, 5 μM, 500 nM, 50 nM, FIG. 11
Experimental: On the day of introduction of the nucleic acid into the cells, the suspension HEK293 cells were seeded in a 50-mL centrifuge tube equipped with a filter cap, with the number of cells being adjusted to 1×10^6 cells/mL (an amount of culture medium of 5 mL).
In the condition where a linear covalently closed DNA was used as the nucleic acid to be introduced into the cells, RC2_LCC_DNA (1 μg/μL, 4 μL, packaging plasmid DNA), Venus_LCC_DNA (1 μg/μL, 1 μL, vector plasmid DNA), Helper_LCC_DNA (1 μg/μL, 1 μL, helper plasmid DNA), and PEI MAX (1 μg/μL, 12 μL, Polysciences Inc.) as polyethylenimine (PEI) were mixed and left to stand in Opti-MEM (Thermo Fisher Scientific K.K.) for production of a LCC DNA-PEI mixed solution. Nucleic acids were introduced into the cells by adding the LCC DNA-PEI mixed solution to the cell culture medium. Thereafter, AAV2 was produced by culturing at 37° C. in the presence of 8% CO2 for 4 days.
Extraction and quantification of the adeno-associated virus vector were carried out by the same methods as in Example 1.
When the cell growth inhibitor A was oxibendazole (Tokyo Chemical Industry Co., Ltd.), DMSO was used as a solubilizer, and oxibendazole was added to the cell culture medium so that the final concentrations of oxibendazole were four kinds of concentrations, i.e., 50 μM, 5 μM, 500 nM, and 50 nM.

suspension HEK293 cells [3] = assay: Titer of adeno-associated virus vector (AAV2) produced with a bioreactor (400 mL culture medium), quantitative PCR; type: cell-based; conditions: nocodazole final 500 nM in DMSO, added 4 hours after introduction of the nucleic acid; vs w/o; FIG. 9
Experimental: On the day of introduction of a nucleic acid into the cells, the suspension HEK293 cells were seeded in a bioreactor (animal cell culture apparatus BCP, volume 1 L, ABLE Corporation), with the number of cells being adjusted to 1×10^6 cells/mL (in an amount of culture medium of 400 mL).
pRC2-mi342 (1 μg/μL, 240 μL, packaging plasmid DNA), pAAV-Venus (1 μg/μL, 80 μL, vector plasmid DNA), pHelper (1 μg/μL, 160 μL, helper plasmid DNA), and PEI MAX (1 μg/μL, 960 μL, Polysciences Inc.) as polyethylenimine (PEI) were mixed and left to stand in Opti-MEM (Thermo Fisher Scientific K.K.) for production of a double-stranded circular plasmid DNA-PEI mixed solution.
Nucleic acids were introduced into the cells by adding the double-stranded circular plasmid DNA-PEI mixed solution to the cell culture medium. Thereafter, AAV2 was produced by culturing at 37° C. in the presence of 8% CO2 for 4 days.
Four days after introduction of the nucleic acid into the cells, the supernatant and the cells were separated, PEG8000 (Sigma-Aldrich Co. LLC) was added to the supernatant obtained, and the adeno-associated virus vector was concentrated. Triton X-100 (Sigma-Aldrich Co. LLC) was added to the residual for cell lysis, and thereafter KANEKA Endonuclease (KANEKA CORPORATION) was added for degradation of DNA. […]
Quantification of the adeno-associated virus was performed by the same method as in Example 1.

[4] = added 4 hours after introduction of the nucleic acid, DMSO as solubilizer

For `CCCSc1ccc2nc(NC(=O)OC)[nH]c2c1` [albendazole], the “titer of adeno-associated virus vector in the cell-derived sample, various cell growth inhibitors A” value (from here on “titer … various cell growth inhibitors A”) [1, 4] was “improved”.
In the case of `CC(=O)O[C@@]12CO[C@@H]1C[C@H](O)[C@@]1(C)C(=O)[C@H](O)C3=C(C)[C@@H](OC(=O)[C@H](O)[C@@H](NC(=O)OC(C)(C)C)c4ccccc4)C[C@@](O)([C@@H](OC(=O)c4ccccc4)[C@H]21)C3(C)C` [docetaxel], the “titer … various cell growth inhibitors A” value [1, 4] is reported as “improved”.
In the case of `COC(=O)Nc1nc2ccc(Sc3ccccc3)cc2[nH]1` [fenbendazole], the “titer … various cell growth inhibitors A” value [1, 4] is reported as “improved”.
For `COC(=O)Nc1nc2ccc(C(=O)c3cccs3)cc2[nH]1` [nocodazole], the “productivity of virus-like particles” value (virus-like particles) is listed as “reduces”, the “titer of adeno-associated virus vector from the cell-derived sample, LCC DNA” value (suspension HEK293 cells [2]) is listed as “increased” and the “increase of the titer of adeno-associated virus vector (cell-derived sample), linear covalently closed DNA” value (suspension HEK293 cells [2]; nocodazole 500 nM in DMSO, added 1 minute after introduction of the nucleic acid, vs w/o, FIG. 10) is listed as “fourteenfold”. The “total titer of adeno-associated virus vector (cell-derived and supernatant-derived sample) at bioreactor scale” value (suspension HEK293 cells [3]) was “reproduced”, the “titer … various cell growth inhibitors A” value [1, 4] was “improved” and the “total titer of adeno-associated virus vector (cell-derived sample and supernatant-derived sample)” value ([1]; final concentration from 250 nM to 2 μM, DMSO as solubilizer, added 4 hours after introduction of the nucleic acid, 4 days culture, vs 0 nM (DMSO only), FIG. 1) was “improved”. For the same compound, the “effect of improving the titer of adeno-associated virus vector (cell-derived sample) compared with sodium valproate” value ([1]; nocodazole 500 nM in DMSO vs sodium valproate (VPA) 1, 2.5, 5, 10 or 12.5 mM in water, FIG. 8) was “larger”, the “increase of the titer of adeno-associated virus vector (cell-derived sample), double-stranded circular plasmid DNA” value ([1]; nocodazole 500 nM in DMSO, added 1 minute after introduction of the nucleic acid, pDNA, vs w/o, FIG. 10) was “eightfold” and the “titer of adeno-associated virus vector in the cell-derived sample, influence of timing of addition” value ([1]; nocodazole final 500 nM in DMSO, added between 24 hours before and 4 hours after introduction of the nucleic acid, vs DMSO only, FIG. 2) was “improved”.
In the case of `CCCOc1ccc2nc(NC(=O)OC)[nH]c2c1` [oxibendazole], the “titer of adeno-associated virus vector from the cell-derived sample, LCC DNA” value (suspension HEK293 cells [2]) is reported as “increased”.
With `CC(=O)O[C@H]1C(=O)[C@@]2(C)[C@H]([C@H](OC(=O)c3ccccc3)[C@]3(O)C[C@H](OC(=O)[C@H](O)[C@@H](NC(=O)c4ccccc4)c4ccccc4)C(C)=C1C3(C)C)[C@]1(OC(C)=O)CO[C@@H]1C[C@@H]2O` [paclitaxel] the “titer … various cell growth inhibitors A” value [1, 4] was “improved”.
For `CC[C@]1(O)C[C@@H]2CN(CCc3c([nH]c4ccccc34)[C@@](C(=O)OC)(c3cc4c(cc3OC)N(C)[C@H]3[C@@](O)(C(=O)OC)[C@H](OC(C)=O)[C@]5(CC)C=CCN6CC[C@]43[C@@H]65)C2)C1` [vinblastine], the “titer … various cell growth inhibitors A” value [1, 4] was “improved”.
